Results reported in ChEMBL document CHEMBL3046607, “Synthesis and Herbicidal Activity of New 1-Alkyl-3-aryloxypyrazole-4-carboxamide Derivatives” (J Pestic Sci, 2004).
The source made the active and inactive calls. The rule behind the calls is not given here.

Tests used:
Ammannia multiflora [1] = test: Pre-emergence herbicidal activity against Ammannia multiflora at 100 g a.i/ha measured after 14 days; assay type: functional, organism-based
Pontederia vaginalis [2] = test: Pre-emergence herbicidal activity against Monochoria vaginalis assessed as bleaching of stem/leaf parts; assay type: functional, organism-based
Elatine triandra [3] = test: Pre-emergence herbicidal activity against Elatine triandra assessed as bleaching of stem/leaf parts; assay type: functional, organism-based
Cyperus difformis [4] = test: Pre-emergence herbicidal activity against Cyperus difformis assessed as bleaching of stem/leaf parts; assay type: functional, organism-based
Echinochloa oryzicola [5] = test: Pre-emergence herbicidal activity against Echinochloa oryzicola assessed as bleaching of stem/leaf parts; assay type: functional, organism-based
[6] = tested on: Schoenoplectiella juncoides; test: Post-emergence herbicidal activity against Schoenoplectiella juncoides assessed as bleaching of stem/leaf parts; assay type: functional, organism-based; also: test concentration or dose not given here
Lindernia procumbens [7] = test: Post-emergence herbicidal activity against Lindernia procumbens assessed as bleaching of stem/leaf parts; assay type: functional, organism-based; also: test concentration or dose not given here
Rotala indica [8] = test: Pre-emergence herbicidal activity against Rotala indica at 100 g a.i/ha measured after 14 days; assay type: functional, organism-based
Lindernia procumbens [9] = test: Pre-emergence herbicidal activity against Lindernia procumbens assessed as bleaching of stem/leaf parts; assay type: functional, organism-based
[10] = tested on: Schoenoplectiella juncoides; test: Pre-emergence herbicidal activity against Schoenoplectiella juncoides at 100 g a.i/ha measured after 14 days; assay type: functional, organism-based
Lindernia procumbens [11] = test: Pre-emergence herbicidal activity against Lindernia procumbens at 100 g a.i/ha measured after 14 days; assay type: functional, organism-based
Rotala indica [12] = test: Pre-emergence herbicidal activity against Rotala indica assessed as bleaching of stem/leaf parts; assay type: functional, organism-based
Cyperus difformis [13] = test: Pre-emergence herbicidal activity against Cyperus difformis at 100 g a.i/ha measured after 14 days; assay type: functional, organism-based
Elatine triandra [14] = test: Post-emergence herbicidal activity against Elatine triandra assessed as bleaching of stem/leaf parts; assay type: functional, organism-based; also: test concentration or dose not given here
Echinochloa oryzicola [15] = test: Post-emergence herbicidal activity against Echinochloa oryzicola assessed as bleaching of stem/leaf parts; assay type: functional, organism-based
Pontederia vaginalis [16] = test: Pre-emergence herbicidal activity against Monochoria vaginalis at 100 g a.i/ha measured after 14 days; assay type: functional, organism-based
Oryza sativa [17] = test: Phytotoxicity against Oryza sativa cv. Koshihikari (rice) at 100 g a.i/ha measured after 14 days; assay type: organism-based; details: in vivo, 336 h
Elatine triandra [18] = test: Pre-emergence herbicidal activity against Elatine triandra at 100 g a.i/ha measured after 14 days; assay type: functional, organism-based
Pontederia vaginalis [19] = test: Post-emergence herbicidal activity against Monochoria vaginalis assessed as bleaching of stem/leaf parts; assay type: functional, organism-based
Cyperus difformis [20] = test: Post-emergence herbicidal activity against Cyperus difformis assessed as bleaching of stem/leaf parts; assay type: functional, organism-based; also: test concentration or dose not given here
Ammannia multiflora [21] = test: Post-emergence herbicidal activity against Ammannia multiflora assessed as bleaching of stem/leaf parts; assay type: functional, organism-based
Rotala indica [22] = test: Post-emergence herbicidal activity against Rotala indica assessed as bleaching of stem/leaf parts; assay type: functional, organism-based
Ammannia multiflora [23] = test: Pre-emergence herbicidal activity against Ammannia multiflora assessed as bleaching of stem/leaf parts; assay type: functional, organism-based
Echinochloa oryzicola [24] = test: Pre-emergence herbicidal activity against Echinochloa oryzicola at 100 g a.i/ha measured after 14 days; assay type: functional, organism-based
[25] = tested on: Schoenoplectiella juncoides; test: Pre-emergence herbicidal activity against Schoenoplectiella juncoides assessed as bleaching of stem/leaf parts; assay type: functional, organism-based
[26] = tested on: Schoenoplectiella juncoides; test: Pre-emergence herbicidal activity against Schoenoplectiella juncoides at 500 g a.i/ha measured after 14 days; assay type: functional, organism-based
Ammannia multiflora [27] = test: Pre-emergence herbicidal activity against Ammannia multiflora at 500 g a.i/ha measured after 14 days; assay type: functional, organism-based
Rotala indica [28] = test: Pre-emergence herbicidal activity against Rotala indica at 500 g a.i/ha measured after 14 days; assay type: functional, organism-based
Echinochloa oryzicola [29] = test: Pre-emergence herbicidal activity against Echinochloa oryzicola at 500 g a.i/ha measured after 14 days; assay type: functional, organism-based
Oryza sativa [30] = test: Phytotoxicity against Oryza sativa cv. Koshihikari (rice) at 500 g a.i/ha measured after 14 days; assay type: organism-based; details: in vivo, 336 h
Lindernia procumbens [31] = test: Pre-emergence herbicidal activity against Lindernia procumbens at 500 g a.i/ha measured after 14 days; assay type: functional, organism-based
Elatine triandra [32] = test: Pre-emergence herbicidal activity against Elatine triandra at 500 g a.i/ha measured after 14 days; assay type: functional, organism-based
Pontederia vaginalis [33] = test: Pre-emergence herbicidal activity against Monochoria vaginalis at 500 g a.i/ha measured after 14 days; assay type: functional, organism-based
Cyperus difformis [34] = test: Pre-emergence herbicidal activity against Cyperus difformis at 500 g a.i/ha measured after 14 days; assay type: functional, organism-based
Rotala indica [35] = test: Pre-emergence herbicidal activity against Rotala indica at 33 g a.i/ha measured after 14 days; assay type: functional, organism-based
Elatine triandra [36] = test: Pre-emergence herbicidal activity against Elatine triandra at 33 g a.i/ha measured after 14 days; assay type: functional, organism-based
Pontederia vaginalis [37] = test: Pre-emergence herbicidal activity against Monochoria vaginalis at 33 g a.i/ha measured after 14 days; assay type: functional, organism-based
Ammannia multiflora [38] = test: Pre-emergence herbicidal activity against Ammannia multiflora at 33 g a.i/ha measured after 14 days; assay type: functional, organism-based
Oryza sativa [39] = test: Phytotoxicity against Oryza sativa cv. Koshihikari (rice) at 33 g a.i/ha measured after 14 days; assay type: organism-based; details: in vivo, 336 h
Echinochloa oryzicola [40] = test: Pre-emergence herbicidal activity against Echinochloa oryzicola at 33 g a.i/ha measured after 14 days; assay type: functional, organism-based
Cyperus difformis [41] = test: Pre-emergence herbicidal activity against Cyperus difformis at 33 g a.i/ha measured after 14 days; assay type: functional, organism-based
Lindernia procumbens [42] = test: Pre-emergence herbicidal activity against Lindernia procumbens at 33 g a.i/ha measured after 14 days; assay type: functional, organism-based
[43] = tested on: Schoenoplectiella juncoides; test: Pre-emergence herbicidal activity against Schoenoplectiella juncoides at 33 g a.i/ha measured after 14 days; assay type: functional, organism-based

Compound | Activity (Ammannia multiflora [1]) | Activity (Pontederia vaginalis [2]) | Activity (Elatine triandra [3]) | Activity (Cyperus difformis [4]) | Activity (Echinochloa oryzicola [5]) | Activity [6] | Activity (Lindernia procumbens [7]) | Activity (Rotala indica [8]) | Activity (Lindernia procumbens [9]) | Activity [10] | Activity (Lindernia procumbens [11]) | Activity (Rotala indica [12]) | Activity (Elatine triandra [14]) | Activity (Echinochloa oryzicola [15]) | Activity (Pontederia vaginalis [16]) | Activity (Oryza sativa [17]) | Activity (Elatine triandra [18]) | Activity (Pontederia vaginalis [19]) | Activity (Cyperus difformis [20]) | Activity (Ammannia multiflora [21]) | also measured
Cn1cc(C(=O)Nc2cccc(S(C)(=O)=O)c2)c(Oc2cccc(C(F)(F)F)c2)n1 | inactive | Active | Active | Active | Active | Active | Active | inactive | Active | inactive | inactive | Active | Active | Active | inactive | Non-toxic | inactive | Active | Active | Active | Activity (Cyperus difformis [13]): inactive; Activity (Rotala indica [22]): Active; Activity (Ammannia multiflora [23]): Active; Activity (Echinochloa oryzicola [24]): inactive; Activity [25]: Active
COc1ccc(NC(=O)c2cn(C)nc2Oc2cccc(C(F)(F)F)c2)cc1OC | inactive | Active | Active | Active | Active | Active | Active | inactive | Active | inactive | inactive | Active | Active | Active | inactive | Non-toxic | inactive | Active | Active | Active | Activity (Cyperus difformis [13]): inactive; Activity (Rotala indica [22]): Active; Activity (Ammannia multiflora [23]): Active; Activity (Echinochloa oryzicola [24]): inactive; Activity [25]: Active
Cn1cc(C(=O)Nc2ccccc2)c(OCc2cccc(C(F)(F)F)c2)n1 | Active | Active | Active | Active | Active | Active | Active | Active | Active | inactive | Active | Active | Active | Active | inactive | Non-toxic | Active | Active | Active | Active | Activity (Cyperus difformis [13]): inactive; Activity (Rotala indica [22]): Active; Activity (Ammannia multiflora [23]): Active; Activity (Echinochloa oryzicola [24]): Active; Activity [25]: Active
CCCONC(=O)c1cn(C)nc1Oc1cccc(C(F)(F)F)c1 | Active | Active | Active | Active | Active | Active | Active | Active | Active | Active | Active | Active | Active | Active | Active | Non-toxic | Active | Active | Active | Active | Activity [26]: Active; Activity (Ammannia multiflora [27]): Active; Activity (Rotala indica [28]): Active; Activity (Echinochloa oryzicola [29]): Active; Activity (Oryza sativa [30]): Toxic; Activity (Lindernia procumbens [31]): Active; Activity (Elatine triandra [32]): Active; Activity (Pontederia vaginalis [33]): Active; Activity (Rotala indica [22]): Active; Activity (Ammannia multiflora [23]): Active; Activity (Echinochloa oryzicola [24]): Active; Activity [25]: Active; Activity (Cyperus difformis [34]): Active
Cn1cc(C(=O)Nc2ccc(C(C)(C)C)cc2)c(Oc2cccc(C(F)(F)F)c2)n1 | inactive | Active | Active | Active | Active | Active | Active | inactive | Active | inactive | inactive | Active | Active | Active | inactive | Non-toxic | inactive | Active | Active | Active | Activity (Cyperus difformis [13]): inactive; Activity (Rotala indica [22]): Active; Activity (Ammannia multiflora [23]): Active; Activity (Echinochloa oryzicola [24]): inactive; Activity [25]: Active
CCONC(=O)c1cn(C)nc1OCc1cccc(C(F)(F)F)c1 | Active | Active | Active | Active | Active | Active | Active | Active | Active | Active | Active | Active | Active | Active | Active | Non-toxic | Active | Active | Active | Active | Activity (Rotala indica [35]): Active; Activity (Elatine triandra [36]): Active; Activity (Pontederia vaginalis [37]): Active; Activity (Ammannia multiflora [38]): Active; Activity (Oryza sativa [39]): Non-toxic; Activity (Echinochloa oryzicola [40]): Active; Activity (Cyperus difformis [41]): Active; Activity (Cyperus difformis [13]): Active; Activity (Lindernia procumbens [42]): Active; Activity [43]: Active; Activity (Rotala indica [22]): Active; Activity (Ammannia multiflora [23]): Active; Activity (Echinochloa oryzicola [24]): Active; Activity [25]: Active
CCONC(=O)c1cn(C)nc1Oc1cccc(C(F)(F)F)c1 | inactive | Active | Active | Active | Active | Active | Active | inactive | Active | inactive | inactive | Active | Active | Active | inactive | Non-toxic | inactive | Active | Active | Active | Activity [26]: Active; Activity (Ammannia multiflora [27]): Active; Activity (Rotala indica [28]): Active; Activity (Cyperus difformis [13]): inactive; Activity (Echinochloa oryzicola [29]): Active; Activity (Oryza sativa [30]): Toxic; Activity (Lindernia procumbens [31]): Active; Activity (Elatine triandra [32]): Active; Activity (Pontederia vaginalis [33]): Active; Activity (Rotala indica [22]): Active; Activity (Ammannia multiflora [23]): Active; Activity (Echinochloa oryzicola [24]): Active; Activity [25]: Active; Activity (Cyperus difformis [34]): Active
